Measurements taken from patent US12703885B2, “Method for predicting the response to CDK4/6 inhibitor therapy in cancer patients” (GBG FORSCHUNGS GMBH, priority 2021, dated 2026).

System: HR+, HER2− eBC at high risk of recurrence
Assay: PENELOPE-B randomized, double-blind, placebo-controlled Phase 3 study; Cox regression for endpoint iDFS
Type: in vivo, human
Source text: The data underlying the present invention were obtained in the context of the PENELOPE^B study (NCT01864746). PENELOPE^B is a randomized, double-blind, placebo-controlled Phase 3 study comparing one year of palbociclib plus at least five years of standard adjuvant endocrine therapy to placebo plus at least five years of standard adjuvant endocrine therapy in 1,250 women with HR+, HER2− eBC at high risk of recurrence who have residual invasive disease after completing neoadjuvant chemotherapy. Patients in the trial scored 3 or higher (or 2 if there were lymph node metastases at the time of surgery) on the clinical-pathologic stage—estrogen/grade (CPS-EG). The CPS-EG is a validated risk assessment tool combining: clinical stage before neoadjuvant treatment, pathological stage after neoadjuvant treatment, grading and estrogen-receptor status. More than 190 clinical sites in 12 countries around the globe participated in PENELOPE-B. The study opened in November 2013 and closed recruitment on Dec. 31, 2017. RNA was extracted from post-surgical residual tumor tissue of patients from the Penelope^B study (GBG 78) and quantified using the HTG EdgeSeq Oncology Biomarker Panel (HTG Molecular Diagnostics Inc.) resulting in a so-called count value for each of the 2559 genes in the assay. Quality control measures were performed as described by the manufacturer. For 906 patients HTG measurements were successfully performed and passed said quality controls. […] Each regression model was calculated based on 906 patients from the Penelope^B study. […] The 20 genes with smallest p-values for the interaction were selected. • 2) For each gene from step 1) the technical eligibility for measurement was evaluated. […] In the cohort of 782 patients the gene expression value was adjusted to the lower limit for between 0 and 16 patients, and to the upper limit for between 0 and 8 patients. • 4) The correlation between genes was analyzed by hierarchical clustering and analysis of the Pearson correlation coefficient matrix based on graphical methods. […]

## CC(=O)c1c(C)c2cnc(Nc3ccc(N4CCNCC4)cn3)nc2n(C2CCCC2)c1=O [palbociclib]
Overall population, n=906, plus standard adjuvant endocrine therapy, no significant difference between arms
  HR for iDFS, palbociclib vs. placebo (95% CI): 0.89 (0.69-1.16)
Subgroup score3dich high (above median of average of PIAS2, MAP2K6, DSG3, ABCC12, IFT52 expression)
  HR (95% CI), arm (palbociclib vs placebo), iDFS: 0.54 (0.37-0.79)
Subgroup score3dich low (below median of average of PIAS2, MAP2K6, DSG3, ABCC12, IFT52 expression)
  HR (95% CI), arm (palbociclib vs placebo), iDFS: 1.45 (1.00-2.09)
